Results as given in patent US20240360107A1, “AN EIF4A INHIBITOR WITH A NOVEL MECHANISM OF ACTION” (ARIZONA BOARD OF REGENTS ON BEHALF OF THE UNIVERSITY OF …, priority 2021, published 2024).
“Also recorded” adds a separate entry of the source.

Each compound was assayed against eIF4A (Homo sapiens, UniProt P60842) (assay: RNA-stimulated malachite green ATPase assay). Conditions: comparison within the series.
Assay type: biochemical
Parameters: 6xHis with TEV protease site (N, cleaved yes); made in house; host or cells: E. coli BL21-CodonPlus
Experimental: Human eIF4A protein was produced recombinantly and a greater than 100,000-compound screen for inhibitors was completed using a malachite green ATPase assay (FIG. 11A). […] A stable mixture of yeast RNAs was added in an effort to improve this system and create a more biologically relevant eIF4A assay. eIF4A ATPase activity was accelerated without a statistically significant increase in the background signal in the presence of this RNA (FIG. 11B), and the new conditions gave excellent statistical parameters in a 384-well plate format (FIG. 11C).
ATPase assay. Recombinant WT or mutant eIF4A was added to a clear bottom 384 well plate (Greiner) in ATPase buffer (20 mM Tris pH 7.4, 80 mM KCl, 2.5 mM MgCl2, 1 mM DTT, 1% glycerol). Compounds were added and the plate was incubated at 37° C. for 20 min. ATP/RNA solution was added to afford a 20 μL per well reaction volume with 750 nM eIF4A, 250 μM ATP, and 0.25 mg/mL Yeast RNA (Sigma) for the initial screen and dose responses, and varying concentrations of ATP and RNA for the kinetic assays. The plate was incubated for 4 h at 37° C. for the initial screen and dose responses, and at seven time points (1 hour-7 hours) for kinetic assays. 0.04% v/v (final concentration) Tween-20 was added to a Malachite Green solution, and the Malachite Green (40 μL per well) was added. The solution was incubated for 5 minutes at room temperature and Absorbance at 660 nm was read on a SpectraMax iD5 plate reader (Molecular Devices).

eIF4A, sequence (P60842 whole entry): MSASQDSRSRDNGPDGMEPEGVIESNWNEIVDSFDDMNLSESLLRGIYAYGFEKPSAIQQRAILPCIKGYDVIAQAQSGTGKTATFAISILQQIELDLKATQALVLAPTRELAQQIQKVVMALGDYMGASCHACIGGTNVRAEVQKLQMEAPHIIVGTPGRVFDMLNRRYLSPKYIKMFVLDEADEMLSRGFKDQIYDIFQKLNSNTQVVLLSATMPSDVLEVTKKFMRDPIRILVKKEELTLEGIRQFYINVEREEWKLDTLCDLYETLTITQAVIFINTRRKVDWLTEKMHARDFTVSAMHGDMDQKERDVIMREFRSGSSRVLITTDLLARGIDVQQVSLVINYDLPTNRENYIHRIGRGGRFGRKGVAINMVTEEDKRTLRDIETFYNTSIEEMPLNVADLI

| Structure (SMILES) | potency in the eIF4A ATPase assay (in words) |
| --- | --- |
| CCCCc1ccc(-c2ccc(-c3cc(C(=O)O)c4cccc(Cl)c4n3)o2)cc1 [Compound 11, 2-(5-(4-butylphenyl)furan-2-yl)-8-chloroquinoline-4-carboxylic acid] | less potent than bromine (12) |
| CCCCc1ccc(-c2ccc(-c3cc(C(=O)O)c4c(Cl)cccc4n3)o2)cc1 [Compound 4, 2-(5-(4-butylphenyl)furan-2-yl)-5-chloroquinoline-4-carboxylic acid] | large drop in potency |
| CCCCc1ccc(-c2ccc(-c3cc(C(=O)O)c4cc(Cl)ccc4n3)o2)cc1 [Compound 6, 2-(5-(4-butylphenyl)furan-2-yl)-6-chloroquinoline-4-carboxylic acid] | moderate losses of potency compared to the bromine substituent |
| O=C(O)c1cc(-c2ccc(-c3ccc(-c4ccccc4)cc3)o2)nc2ccc([N+](=O)[O-])cc12 [Compound 50, 2-(5-([1,1′-biphenyl]-4-yl)furan-2-yl)-6-nitroquinoline-4-carboxylic acid] | less potent than compound 28; also recorded: more potent than meta-substituted 51 |
| CCCCc1ccc(-c2ccc(-c3cc(C(=O)O)c4cccc([N+](=O)[O-])c4n3)o2)cc1 [Compound 30, 2-(5-(4-butylphenyl)furan-2-yl)-8-nitroquinoline-4-carboxylic acid] | over three-fold less potent than compound 28 |
| O=C(O)c1cc(-c2ccc(-c3cccc4ccccc34)o2)nc2ccc([N+](=O)[O-])cc12 [Compound 49, 2-(5-(naphthalen-1-yl)furan-2-yl)-6-nitroquinoline-4-carboxylic acid] | about four-fold less potent than compound 28 |
| CCCCc1ccc(-c2ccc(-c3cc(C(=O)O)c4cc(I)ccc4n3)o2)cc1 [Compound 7, 2-(5-(4-butylphenyl)furan-2-yl)-6-iodoquinoline-4-carboxylic acid] | moderate losses of potency compared to the bromine substituent |
| CCCCc1ccc(-c2ccc(-c3cc(C(=O)O)c4ccc(Br)cc4n3)o2)cc1 [Compound 10, 7-bromo-2-(5-(4-butylphenyl)furan-2-yl)quinoline-4-carboxylic acid] | moderate potency |
| CC(C)(C)OC(=O)Nc1cccc(-c2ccc(-c3cc(C(=O)O)c4cc([N+](=O)[O-])ccc4n3)o2)c1 [Compound 44, 2-(5-(3-((tert-butoxycarbonyl)amino)phenyl)furan-2-yl)-6-nitroquinoline-4-carboxyli c acid] | low potency |
| CCCCc1ccc(-c2ccc(-c3cc(C(=O)O)c4ccc(OC)cc4n3)o2)cc1 [Compound 22, 2-(5-(4-butylphenyl)furan-2-yl)-7-methoxyquinoline-4-carboxylic acid] | neither were more potent than earlier molecules in the series |
| CC(C)(C)OC(=O)Nc1ccc(-c2ccc(-c3cc(C(=O)O)c4cc([N+](=O)[O-])ccc4n3)o2)cc1 [Compound 45, 2-(5-(4-((tert-butoxycarbonyl)amino)phenyl)furan-2-yl)-6-nitroquinoline-4-carboxylic acid] | low potency |
| CCCCc1ccc(-c2ccc(-c3cc(C(=O)O)c4ccc(C(F)(F)F)cc4n3)o2)cc1 [Compound 26, 2-(5-(4-butylphenyl)furan-2-yl)-7-(trifluoromethyl)quinoline-4-carboxylic acid] | performed better in the ATPase assay than molecules with electron-donating substitutions |
| CCCCc1ccc(-c2ccc(-c3cc(C(=O)O)c4ccc(F)cc4n3)o2)cc1 [Compound 8, 2-(5-(4-butylphenyl)furan-2-yl)-7-fluoroquinoline-4-carboxylic acid] | moderate potency |
| CCCCc1ccc(-c2ccc(-c3cc(C(=O)O)c4cc([N+](=O)[O-])ccc4n3)s2)cc1 [Compound 31, 2-(5-(4-butylphenyl)thiophen-2-yl)-6-nitroquinoline-4-carboxylic acid] | large drop in potency |
| CCCCc1ccc(-c2ccc(-c3cc(C(=O)O)c4cc(OC)ccc4n3)o2)cc1 [Compound 21, 2-(5-(4-butylphenyl)furan-2-yl)-6-methoxyquinoline-4-carboxylic acid] | much more potent than 7-methoxy (22) |
| CCCCc1ccc(-c2ccc(-c3cc(C(=O)O)c4cccc(C(F)(F)F)c4n3)o2)cc1 [Compound 27, 2-(5-(4-butylphenyl)furan-2-yl)-8-(trifluoromethyl)quinoline-4-carboxylic acid] | performed better in the ATPase assay than molecules with electron-donating substitutions; also recorded: about two-fold better than compound 26 |
| CCCCc1ccc(-c2ccc(-c3cc(C(=O)O)c4ccccc4n3)o2)cc1 [Compound 3, 2-(5-(4-butylphenyl)furan-2-yl)quinoline-4-carboxylic acid] | much less potent than compound 1 |
| CCCCc1ccc(-c2ccc(-c3cc(C(=O)O)c4cc(OC(F)(F)F)ccc4n3)o2)cc1 [Compound 23, 2-(5-(4-butylphenyl)furan-2-yl)-6-(trifluoromethoxy)quinoline-4-carboxylic acid] | much less potent than compound 21 |

Results, then the compound that gave them:

| potency in the eIF4A ATPase assay (in words) | Structure (SMILES) |
| --- | --- |
| drop in potency | CCCCc1ccc(-c2cccc(-c3cc(C(=O)O)c4cc([N+](=O)[O-])ccc4n3)c2)cc1 [Compound 33, 2-(4′-butyl-[1,1′-biphenyl]-3-yl)-6-nitroquinoline-4-carboxylic acid] |
| large drop in potency | CCCCc1ccc(-c2ccc(-c3cc(C(=O)O)c4cc([N+](=O)[O-])ccc4n3)[nH]2)cc1 [Compound 32, 2-(5-(4-butylphenyl)-1H-pyrrol-2-yl)-6-nitroquinoline-4-carboxylic acid] |
| lost all potency | O=C(O)c1cc(-c2ccc(-c3ccc4c(c3)OCO4)o2)nc2ccc([N+](=O)[O-])cc12 [Compound 48, 2-(5-(benzo[d][1,3]dioxol-5-yl)furan-2-yl)-6-nitroquinoline-4-carboxylic acid] |
| lost potency altogether | CCCCc1ccc(-c2cncc(-c3cc(C(=O)O)c4cc([N+](=O)[O-])ccc4n3)c2)cc1 [Compound 35, 2-(5-(4-butylphenyl)pyridin-3-yl)-6-nitroquinoline-4-carboxylic acid] |
| drop in potency | CCCCc1ccc(-c2cccc(-c3cc(C(=O)O)c4cc([N+](=O)[O-])ccc4n3)n2)cc1 [Compound 34, 2-(6-(4-butylphenyl)pyridin-2-yl)-6-nitroquinoline-4-carboxylic acid] |
| less potent than compound 28 | O=C(O)c1cc(-c2ccc(-c3cccc(-c4ccccc4)c3)o2)nc2ccc([N+](=O)[O-])cc12 [Compound 51, 2-(5-([1,1′-biphenyl]-3-yl)furan-2-yl)-6-nitroquinoline-4-carboxylic acid] |
| much less potent than 28 | CCCCc1ccc(-c2ccc(-c3cc(C(=O)O)c4cc([N+](=O)[O-])ccc4n3)cc2)cc1 [Compound 36, 2-(4′-butyl-[1,1′-biphenyl]-4-yl)-6-nitroquinoline-4-carboxylic acid] |
| much less potent than 28 | CCCCc1ccc(-c2ccc(-c3cc(C(=O)O)c4cc([N+](=O)[O-])ccc4n3)cn2)cc1 [Compound 37, 2-(6-(4-butylphenyl)pyridin-3-yl)-6-nitroquinoline-4-carboxylic acid] |
| no more potent than 28 | CCCCCc1ccc(-c2ccc(-c3cc(C(=O)O)c4cc([N+](=O)[O-])ccc4n3)o2)cc1 [Compound 40, 6-nitro-2-(5-(4-pentylphenyl)furan-2-yl)quinoline-4-carboxylic acid] |
| drastic loss in potency | O=C(O)c1cc(-c2ccc(-c3ccccc3)o2)nc2ccc([N+](=O)[O-])cc12 [Compound 38, 6-nitro-2-(5-phenylfuran-2-yl)quinoline-4-carboxylic acid] |

Same assay, conditions: relative to compound 1

| Structure (SMILES) | fold less potent than compound 1 in the ATPase assay |
| --- | --- |
| CCCCc1ccc(-c2ccc(-c3cc(C(=O)OCC)c4cc(Br)ccc4n3)o2)cc1 [Compound 2, ethyl 6-bromo-2-(5-(4-butylphenyl)furan-2-yl)quinoline-4-carboxylate] | about 5 fold |

Same assay, conditions: relative to compound 28

| Structure (SMILES) | fold less potent than 28 in the ATPase assay |
| --- | --- |
| CCCc1ccc(-c2ccc(-c3cc(C(=O)O)c4cc([N+](=O)[O-])ccc4n3)o2)cc1 [Compound 39, 6-nitro-2-(5-(4-propylphenyl)furan-2-yl)quinoline-4-carboxylic acid] | about 5 fold |
